Results published in BindingDB's records for doi:10.1080/14756360500179333 (University of Karachi, 2005).

Molecular target: Tyrosinase (Agaricus bisporus)
Test: Tyrosinase inhibition assays were performed in a 96-well microplate format using SpectraMax 340 (Molecular Devices, CA, USA) microplate reader according to method developed earlier.
Details: pH 6.8

Compound | IC50
CC(=O)N1CCC(N2CCCCC2)CC1 | 29.9 µM
C1CCN(C2CCNCC2)CC1 [Tyrosinase Inhibitor, 1] | 111 µM
Cc1ccc(CN2CCC(N3CCCCC3)CC2)cc1 [Tyrosinase Inhibitor, 4] | 1.72 µM
O=[N+]([O-])c1ccc(S(=O)(=O)N2CCC(N3CCCCC3)CC2)cc1 [Tyrosinase Inhibitor, 8] | 8.76 µM
